Values after ≈ are worked out from the molar mass of the structure shown.
Columns and labels:
Format in all cases: functional
Escherichia coli [1] = assay: Antibacterial activity against Escherichia coli MTCC 1573 at 500 ug/ml after 48 hr by cup-plate method; settings: MTCC 1573, 48 h, read-out: DIZ
Bacillus pumilus [2] = assay: Antibacterial activity against Bacillus pumilus MTCC 1456 at 1000 ug/ml after 48 hr by cup-plate method; settings: MTCC 1456, 48 h, read-out: DIZ
Penicillium chrysogenum [3] = assay: Antifungal activity against Penicillium chrysogenum MTCC 161 at 1000 ug/ml after 48 hr by cup-plate method; settings: MTCC 161, 48 h, read-out: DIZ
Pseudomonas fluorescens [4] = assay: Antibacterial activity against Pseudomonas fluorescens MTCC 2421 at 750 ug/ml after 48 hr by cup-plate method; settings: MTCC 2421, 48 h, read-out: DIZ
Escherichia coli [5] = assay: Antibacterial activity against Escherichia coli MTCC 1573 at 750 ug/ml after 48 hr by cup-plate method; settings: MTCC 1573, 48 h, read-out: DIZ
Staphylococcus aureus [6] = assay: Antibacterial activity against Staphylococcus aureus MTCC 1430 at 750 ug/ml after 48 hr by cup-plate method; settings: MTCC 1430, 48 h, read-out: DIZ
Penicillium chrysogenum [7] = assay: Antifungal activity against Penicillium chrysogenum MTCC 161 at 500 ug/ml after 48 hr by cup-plate method; settings: MTCC 161, 48 h, read-out: DIZ
Staphylococcus aureus [8] = assay: Antibacterial activity against Staphylococcus aureus MTCC 1430 at 250 ug/ml after 48 hr by cup-plate method; settings: MTCC 1430, 48 h, read-out: DIZ
Aspergillus niger [9] = assay: Antifungal activity against Aspergillus niger MTCC 2546 at 500 ug/ml after 48 hr by cup-plate method; settings: MTCC 2546, 48 h, read-out: DIZ
Pseudomonas aeruginosa [10] = assay: Antibacterial activity against Pseudomonas aeruginosa MTCC 424 at 750 ug/ml after 48 hr by cup-plate method; settings: MTCC 424, 48 h, read-out: DIZ
Escherichia coli [11] = assay: Antibacterial activity against Escherichia coli MTCC 1573 at 1250 ug/ml after 48 hr by cup-plate method; settings: MTCC 1573, 48 h, read-out: DIZ
Pseudomonas fluorescens [12] = assay: Antibacterial activity against Pseudomonas fluorescens MTCC 2421 after 24 to 48 hr by tube dilution method
Bacillus subtilis [13] = assay: Antibacterial activity against Bacillus subtilis MTCC 441 after 24 to 48 hr by tube dilution method
Escherichia coli [14] = assay: Antibacterial activity against Escherichia coli MTCC 1573 after 24 to 48 hr by tube dilution method
Aspergillus niger [15] = assay: Antifungal activity against Aspergillus niger MTCC 2546 at 1000 ug/ml after 48 hr by cup-plate method; settings: MTCC 2546, 48 h, read-out: DIZ
Staphylococcus aureus [16] = assay: Antibacterial activity against Staphylococcus aureus MTCC 1430 at 1250 ug/ml after 48 hr by cup-plate method; settings: MTCC 1430, 48 h, read-out: DIZ
Penicillium chrysogenum [17] = assay: Antifungal activity against Penicillium chrysogenum MTCC 161 at 750 ug/ml after 48 hr by cup-plate method; settings: MTCC 161, 48 h, read-out: DIZ
Bacillus pumilus [18] = assay: Antibacterial activity against Bacillus pumilus MTCC 1456 at 750 ug/ml after 48 hr by cup-plate method; settings: MTCC 1456, 48 h, read-out: DIZ
Micrococcus luteus [19] = assay: Antibacterial activity against Micrococcus luteus MTCC 1538 at 100 ug/ml after 48 hr by cup-plate method; settings: MTCC 1538, 48 h, read-out: DIZ
Pseudomonas fluorescens [20] = assay: Antibacterial activity against Pseudomonas fluorescens MTCC 2421 at 1250 ug/ml after 48 hr by cup-plate method; settings: MTCC 2421, 48 h, read-out: DIZ
Penicillium chrysogenum [21] = assay: Antifungal activity against Penicillium chrysogenum MTCC 161 at 1250 ug/ml after 48 hr by cup-plate method; settings: MTCC 161, 48 h, read-out: DIZ
Pseudomonas aeruginosa [22] = assay: Antibacterial activity against Pseudomonas aeruginosa MTCC 424 at 1000 ug/ml after 48 hr by cup-plate method; settings: MTCC 424, 48 h, read-out: DIZ
Escherichia coli [23] = assay: Antibacterial activity against Escherichia coli MTCC 1573 at 250 ug/ml after 48 hr by cup-plate method; settings: MTCC 1573, 48 h, read-out: DIZ
Pseudomonas aeruginosa [24] = assay: Antibacterial activity against Pseudomonas aeruginosa MTCC 424 at 1250 ug/ml after 48 hr by cup-plate method; settings: MTCC 424, 48 h, read-out: DIZ
Micrococcus luteus [25] = assay: Antibacterial activity against Micrococcus luteus MTCC 1538 at 1000 ug/ml after 48 hr by cup-plate method; settings: MTCC 1538, 48 h, read-out: DIZ
Bacillus subtilis [26] = assay: Antibacterial activity against Bacillus subtilis MTCC 441 at 1250 ug/ml after 48 hr by cup-plate method; settings: MTCC 441, 48 h, read-out: DIZ
Bacillus subtilis [27] = assay: Antibacterial activity against Bacillus subtilis MTCC 441 at 750 ug/ml after 48 hr by cup-plate method; settings: MTCC 441, 48 h, read-out: DIZ

SMILES: O=[N+]([O-])c1ccc(C2CC(c3cccc4ccccc34)=NN2c2ccc([N+](=O)[O-])cc2[N+](=O)[O-])cc1 (configuration not stated)
- zone of inhibition at 500 µg/mL (Escherichia coli [1]): 11 mm
- zone of inhibition at 1000 µg/mL (Bacillus pumilus [2]): 22 mm
- zone of inhibition at 1000 µg/mL (Penicillium chrysogenum [3]): 24 mm
- zone of inhibition at 750 µg/mL (Pseudomonas fluorescens [4]): 21 mm
- zone of inhibition at 750 µg/mL (Escherichia coli [5]): 12 mm
- zone of inhibition at 750 µg/mL (Staphylococcus aureus [6]): 10 mm
- zone of inhibition at 500 µg/mL (Penicillium chrysogenum [7]): 18 mm
- zone of inhibition at 250 µg/mL (Staphylococcus aureus [8]): 8 mm
- zone of inhibition at 500 µg/mL (Aspergillus niger [9]): 16 mm
- zone of inhibition at 750 µg/mL (Pseudomonas aeruginosa [10]): 13 mm
- zone of inhibition at 1250 µg/mL (Escherichia coli [11]): 17 mm
- MIC (Pseudomonas fluorescens [12]): 150 µg/mL (≈ 310 µM)
- MIC (Bacillus subtilis [13]): 50 µg/mL (≈ 103 µM)
- MIC (Escherichia coli [14]): 150 µg/mL (≈ 310 µM)
- zone of inhibition at 1000 µg/mL (Aspergillus niger [15]): 21 mm
- zone of inhibition at 1250 µg/mL (Staphylococcus aureus [16]): 14 mm
- zone of inhibition at 750 µg/mL (Penicillium chrysogenum [17]): 22 mm
- zone of inhibition at 750 µg/mL (Bacillus pumilus [18]): 20 mm
- zone of inhibition at 100 µg/mL (Micrococcus luteus [19]): 8 mm
- zone of inhibition at 1250 µg/mL (Pseudomonas fluorescens [20]): 25 mm
- zone of inhibition at 1250 µg/mL (Penicillium chrysogenum [21]): 26 mm
- zone of inhibition at 1000 µg/mL (Pseudomonas aeruginosa [22]): 14 mm
- zone of inhibition at 250 µg/mL (Escherichia coli [23]): 10 mm
- zone of inhibition at 1250 µg/mL (Pseudomonas aeruginosa [24]): 17 mm
- zone of inhibition at 1000 µg/mL (Micrococcus luteus [25]): 12 mm
- zone of inhibition at 1250 µg/mL (Bacillus subtilis [26]): 16 mm
- zone of inhibition at 750 µg/mL (Bacillus subtilis [27]): 14 mm
